Tests used:
Assay type in all cases: cell-based, human
[1] = test system: umbilical cord blood-derived CD34+ cells; test: Flow cytometry detection of HSC stemness markers (LT-HSCs CD34+CD45+CD90+CD45RA-CD38-) after small molecule induction
Protocol: (§1) According to the solubility and required solvent indicated in the instructions of the small molecule inhibitor (see Table 1 for the Cat. number of the small molecule inhibitor), the preparation of the small molecule inhibitor stock solution was carried out. Next, the hematopoietic stem cell medium was prepared: SFEM II medium (stem cell, Cat. number: 09655)+50 ng/ml growth factor Flt-3L (PeProtech, Cat. number: 300-100UG)+50 ng/ml growth factor SCF (PeProtech, Cat. number): 300-07-100UG)+50 ng/ml growth factor TPO (PeProtech, Cat. number: 300-18-100UG)+10 ng/ml interleukin IL-6 (PeProtech, Cat. number: 200-06-20UG)+1% bispecific antibody (HyClone, Cat. No.: sv30010). According to the set concentration gradient of the small molecule inhibitor, the stock solution and the basal medium were used to prepare the medium containing different concentrations of the small molecule inhibitor.
(§2) First, the prepared medium was added to a 24-well plate (Corning, Cat. number: 3473), 950 μl per well, and placing it in a carbon dioxide incubator (Thermo, model: 3111) to preheat; resuspending the spare umbilical cord Blood-derived HSCs of Example 1 with SFEM 11+50 ng/ml Flt-3L+50 ng/ml SCF+50 ng/ml TPO+10 ng/ml IL-6+1% bispecific antibody, calculating the medium volume to be added according to 50 μl cell suspension per well and 2*10^5/m1 cell density per well. For example, when the final volume of the cell culture solution per well was 1 ml, the total number of cells per well was 2*10^5 cells calculated according to the cell density per well, and the density of the […] of cell suspension supplemented to each well is 4*10^6/ml. The density of the spare HSCs of Example 1 was adjusted to the calculated density of the cell suspension, and adding it; taking out the preheated medium from the incubator, adding 50 μl of the cell suspension to each well, and after mixing, using the microscope (OLYMPUS, model: CKX53) to observe the cells state, and then putting it into an incubator for culturing.
(§3) 20 μL of cells cultured for 6-8 days (D6-D8) in the above Example 2 was sampled for counting, taking out a suspension of 2*10^5 cells into a 1.5 ml centrifuge tube according to the counting result; centrifuging at 400 g for 5 min, discarding the supernatant. 100 μL of PBS (phosphate-buffered saline solution, HyClone, Cat. number: SH30256.01) containing 1% HSA (human serum albumin, Guangdong Shuanglin, Cat. number: S10970069) was taken, resuspending the cells, and vortexing to mix well for later use. Then, the cell sample in the control was collected. The number of cells and the collection method were the same as those of the sample cells to be tested. The controls were setting as the NC group and the ISO group respectively, selecting the cells from any sample or mixed cells of the samples to be tested in this batch of experiments, depending on the number of cells.
(§4) According to Table 3 above, the antibodies were added to the cell suspensions of the above-mentioned cell samples to be tested and control cell samples according to groups; vortexing to mix and incubating at room temperature for 15 min in the dark. After 15-min incubation, 1 ml of PBS containing 1% HSA was added to each test sample, mixing well, centrifuging at 400 g for 5 min at room temperature. After centrifugation, the supernatant was discarded, and the cells were resuspended in 100 μL of PBS containing 1% HSA for each test sample. Samples were stored at room temperature away from light before testing. […]

[2] = test system: mobilized peripheral blood-derived CD34+ cells; test: Flow cytometry detection of HSC stemness markers, comparison with UM171 and SR1; conditions: FIG. 5A; 1 μM; 8 days
Protocol: as §1, §2, §3, §4

[3] = test system: mobilized peripheral blood-derived CD34+ cells; test: Cell counting: absolute number of marker-positive cells, comparison with UM171 and SR1; conditions: FIG. 5B, 8 days
Protocol: as §1, §2
On the mobilized peripheral blood-derived CD34+ cells sorted in Example 1, the screened-out inhibitor AG1296 and literature-reported (Fares I, et al. Science. 2014; Boitano A E, et al. Science. 2010) inhibitors UM171 and SR1 were compared in the same way as Example 2. Eight days after the induction of the small molecule inhibitor, the expression of LT-HSCs cell surface markers (CD34+CD45+CD90+CD45RA−CD38−) was detected by flow cytometry using the same method as in Example 3. After 8 days of culture, 20 μL of cell suspension was taken into a cell counter (Nexcelom, model: Cellometer K2) and counted, and the absolute numbers of the final CD34+ cells and LT-HSCs on […] were calculated (absolute number of cells=total number of cells*stemness ratio).

COc1cc2ncc(-c3ccccc3)nc2cc1OC [AG1296]
expansion fold of the ratio of LT-HSCs (CD34+CD45+CD90+CD45RA-CD38-), test group/control group (Mock) ([1]; FIG. 2, 6-8 days induction, 3 concentrations per inhibitor): more than 3 times
maintaining the CD3+, CD34+CD90+, CD34+CD90+CD45RA- cell ratios (proportion in total cells) ([1]; FIG. 3A, 1 μM, 5 μM and 10 μM, 6 days, vs Mock): superior to the Mock group
proportion of LT-HSC relative to AG1296 (500 nM) ([1]; FIG. 4A, 1 μM, 6 days): about 2 times
proportion of LT-HSC relative to Mock group and AG1296 (100 nM) group ([1]; FIG. 4A, 1 μM, 6 days): about 3 times
maintaining the ratio of CD34+, CD34+CD90+, and CD34+CD90+CD45RA- cells ([1]; FIG. 4A, 1 μM, 6 days, vs Mock, 100 nM and 500 nM): better than Mock group and at the concentrations of 100 nM and 500 nM
maintaining the proportion of CD34+, CD34+CD90+, and CD34+CD90+CD45RA- cells, vs Mock, UM171 and lower AG1296 concentrations [2]: significantly more effective than Mock group, UM171 group, AG1296 (500 nM) group and AG1296 (700 nM) group
maintaining the proportion of CD34+, CD34+CD90+, and CD34+CD90+CD45RA- cells, vs SR1 group [2]: not as good as the SR1 group
proportion of LT-HSCs relative to AG1296 (500 nM) group and AG1296 (700 nM) group [2]: about 1 time
proportion of LT-HSCs relative to Mock group and UM171 group [2]: about 2 times
proportion of LT-HSCs, vs SR1 group [2]: not as good as SR1 group
absolute number of CD34+CD90+, and CD34+CD90+CD45RA- cells ([3]; 1 μM): showed superiority
effect on cell proliferation ([3]; 1 μM): could inhibit cell proliferation
absolute number of CD34+ cells ([3]; AG1296 at 1 μM, UM171 concentration not given): not significantly better than other groups

From patent publication US20240058387A1, “CULTURE MEDIUM COMPOSITION FOR AMPLIFYING AND MAINTAINING SELF-RENEWAL CAPACITY AND DIFFERENTIATION POTENTIAL OF HSCS AND APPLICATION THEREOF” (EDIGENE (GUANGZHOU) INC., priority 2020, published 2024)
